This is an account of results in PMC4278898 (PLoS ONE, 2014).

As a reminder, the inhibition is the change of the read-out against control, counted positive when it falls. The term IC50 denotes the concentration that inhibits the measured activity by half. In general, viability refers to the share of living cells, or the viability signal relative to a control.

Each structure is given as a SMILES string. “And” between values parts separate entries of the source, which are not always exact repeats. Identical values can stand only once. “Also recorded” adds a separate entry of the source. Like-named read-outs stand apart in the source and are kept apart here. Some results are limits rather than exact numbers.

For data set [1], the system named is TZM-bl, HeLa, PBMC, and H9 cells. Kind of data set: Cytotoxicity tests on TZM-bl, HeLa, PBMC and H9 cells (summary statements). Type of data set: cell-based, human. As to conditions: positive control AZT 60 µM.
Protocol: (§3) The in vitro cytotoxic effect of each of the flavonoids was determined by a resazurin fluorometric method (Cell Titer Blue Viability Assay, Promega Corp, Madison, WI), as described by O'Brien et al. [27]. TZM-bl and HeLa adherent cells were each separately seeded (1×10^5 cell/mL) into a 96 well plate (Greiner Bio-One North America, Inc Monroe, NC, USA). After 24 hours, their morphology was observed under an inverted microscope. The experimental natural compounds were then added to the cultured cells (n = 9) plates, and incubated for 24 hours. The cells were washed with pre-warmed PBS (Lonza Walkersville, Inc. Walkersville, MD) and the medium was replaced with medium pre-warmed to 37°C. Resazurin was added, and the cells were incubated for 3.5 hours. […] The cytotoxic effect of the three flavonoids on H9 and PBMC cells was determined using the same protocol.
Data set [2] relates to HIV-1 BaL. Kind of data set: Anti-HIV activity in infected TZM-bl cells (luciferase). Type of data set: cell-based. As to conditions: for anti-HIV activity compared with the vehicle control (HIV-1 BaL, TZM-bl): concentration not stated (range 0.01–100 µM).
A further data set deals with HeLa cells. Kind of data set: Cytotoxicity assay (resazurin fluorometric method), HeLa cells. Type of data set: cell-based, human. In general terms: The colour change of resazurin is a common sign of viable cells or microbes.
The test system of data set [3] is HIV-1 MN. Nature of the data set: Anti-HIV activity in PBMC, HIV-1 MN (p24 ELISA). Type of data set: cell-based. The settings on record: for anti-HIV activity, PBMC cells, HIV-1 MN: concentration not given. (In general: In an ELISA, binding on a coated surface is turned into a signal by an enzyme label.)
Data set [4] concerns HIV-1 MN. Kind of data set: Anti-HIV activity in H9 cells, HIV-1 MN (p24 ELISA). Type of data set: cell-based. The settings on record: for inhibition of infection / anti-HIV activity, H9 cells, HIV-1 MN: concentration not given. The protocol: (§1) HIV-1 infection of H9 cells was performed as described by Gurgo et al. as follows: H9 cells were seeded at 1×10^5 cell/mL into a 24 well plate. […] After 48 hours of incubation, the supernatant was collected and frozen at −80°C. ELISA was performed to detect p24, and the cytotoxicity assay was done using the resazurin fluorometric method, as described previously.
(§2) The HIV-1 p24 Antigen ELISA 2.0 Kit (ZeptoMetrix Corporation, Bufalo, NY) was used to monitor and determine the titer of HIV-1-based lentiviral samples, as described by Gonçalves et al.. For each sample (n = 9), a 225 µL volume was treated with 25 µL of lysing buffer. An ELISA array plate was washed three times with 300 µL/well of wash buffer in a microplate washer (MultiWash III, TriContinent, Grass Valley, CA), and 200 µL/well of each treated samples was transferred to the plate. The plate was incubated at 37°C for 3 hours, then washed six times, incubated for 1 hour with 100 µL/well of HIV-1 p24 detector antibody, washed six more times, and incubated 30 min at room temperature with 100 µL/well of substrate. The reaction was stopped by addition of stop solution (100 µL/well). The absorbance was determined using a microplate reader (SpectraMax M5, Molecular Devices, Sunnyvale, CA) at 450 nm, and the samples were calibrated against the HIV-1 p24 standard curve, generated from a series of standards loaded on the same plate.

The nature of data set [5]: Cytotoxicity tests on TZM-bl, HeLa, PBMC and H9 cells (summary statements). Type of data set: cell-based, human. As to conditions: human, TZM-bl, HeLa, PBMC, H9; for viability at 24 h: at concentrations between 20 µM–60 µM, read-out: cell viability.
Protocol: as §3
In a further data set the test system is PBMC cells. Kind of data set: Cytotoxicity assay (resazurin fluorometric method), PBMC cells. Type of data set: cell-based, human.
Data set [6] concerns TZM-bl cells. Nature of the data set: Cell viability in the dual-chamber model (resazurin). The settings on record: resazurin method.
Protocol: The in vitro cytotoxic effect of each of the flavonoids was determined by a resazurin fluorometric method (Cell Titer Blue Viability Assay, Promega Corp, Madison, WI), as described by O'Brien et al. [27]. TZM-bl and HeLa adherent cells were each separately seeded (1×10^5 cell/mL) into a 96 well plate (Greiner Bio-One North America, Inc Monroe, NC, USA). After 24 hours, their morphology was observed under an inverted microscope. The experimental natural compounds were then added to the cultured cells (n = 9) plates, and incubated for 24 hours. The cells were washed with pre-warmed PBS (Lonza Walkersville, Inc. Walkersville, MD) and the medium was replaced with medium pre-warmed to 37°C. Resazurin was added, and the cells were incubated for 3.5 hours.
Transwell assay inserts with 8 µM diameter pores and 0.3 cm^2 of culture surface (Greiner Bio-One, Monroe, NC,) were positioned in the wells of a 24-well plate. Then 1×10^4 HeLa cells were seeded into each transwell insert/apical chamber (using DMEM with 10% FBS). […] To assess confluence, the Trans Epithelial Electric Resistance (TEER) (described by Arien et al. [33]) of each HeLa cell layer was measured with a Millicell-ERS Volt-Ohm Meter (Millipore, Bedford, MA) before and after flavonoids treatments. Cell layer confluence in the transwell inserts was measured daily, until the optimal TEER (>150 Ohm/cm^2) was reached on day 4. […]
The test system of the next data set is H9 cells. Nature of the data set: Cytotoxicity assay (resazurin fluorometric method), H9 cells. Type of data set: cell-based, human.
The next data set has as its system HeLa cell layer. Nature of the data set: Trans Epithelial Electric Resistance (TEER) of HeLa cell layer in dual-chamber model. As to conditions: dual-chamber transwell insert.
The subject of data set [7] is HIV-1 89.6. Kind of data set: Anti-HIV activity in PBMC, HIV-1 89.6 (p24 ELISA). Type of data set: cell-based. The settings on record: for anti-HIV activity, PBMC cells, HIV-1 89.6: p24 ELISA, concentration not given; for IC50: Human immunodeficiency virus 1, HIV-1 89.6, p24 ELISA. The protocol:
The viability of the cells was assessed by the resazurin fluometric method as describe previously. After incubation, the supernatant from each well was collected and stored at -80°C for performance of p24 ELISA.
as §2

Data set [8] concerns HIV-1 89.6. Nature of the data set: Anti-HIV activity in H9 cells, HIV-1 89.6 (p24 ELISA). Type of data set: cell-based. As to conditions: for inhibition of infection / anti-HIV activity, H9 cells, HIV-1 89.6: p24 ELISA, concentration not given. The protocol:
as §1, §2

The subject of data set [9] is TZM-bl cells. Nature of the data set: Cytotoxicity assay (resazurin fluorometric method), TZM-bl cells. Type of data set: cell-based, human.
Data set [10] has as its system HIV-1 BaL. Kind of data set: Microbicide activity in the dual-chamber model (HeLa apical, TZM-bl basal; luciferase). As to conditions: Human immunodeficiency virus 1, BAL.
Protocol: (§4) Transwell assay inserts with 8 µM diameter pores and 0.3 cm^2 of culture surface (Greiner Bio-One, Monroe, NC,) were positioned in the wells of a 24-well plate. Then 1×10^4 HeLa cells were seeded into each transwell insert/apical chamber (using DMEM with 10% FBS). TZM-bl cells (1×10^5) were seeded into the basal chambers below the inserts, and the plates were incubated at 37°C in humid air containing 5% CO2. To assess confluence, the Trans Epithelial Electric Resistance (TEER) (described by Arien et al. [33]) of each HeLa cell layer was measured with a Millicell-ERS Volt-Ohm Meter (Millipore, Bedford, MA) before and after flavonoids treatments. Cell layer confluence in the transwell inserts was measured daily, until the optimal TEER (>150 Ohm/cm^2) was reached on day 4. On day 4, the media in the basal chamber and the insert was replaced with new pre-warmed media. […] The plate was incubated at 37°C, in humid air containing 5% CO2.
The experiments were performed in triplicate and repeated three different times.
The mark [11] stands for this setting: Human immunodeficiency virus 1, H9.
[12] abbreviates: Human immunodeficiency virus 1, BAL, TZM-bl.
Where [13] appears, read: TZM-bl cells, 24 hours treatment, concentration that kills 50% of the cells.
The mark [14] stands for this setting: Human immunodeficiency virus 1, PBMC cells, HIV-1 MN, p24 ELISA, read-out: IC50.
Where [15] appears, read: Human immunodeficiency virus 1, H9 cells, HIV-1 MN, p24 ELISA, read-out: IC50.
Where [16] appears, read: Human immunodeficiency virus 1, H9 cells, HIV-1 89.6, p24 ELISA, read-out: IC50.

Protocol for HeLa cell layer: as §4

As to `Cc1cn([C@H]2C[C@H](N=[N+]=[N-])[C@@H](CO)O2)c(=O)[nH]c1=O` [AZT, Zidovudine, reference compound], the “effect on cell growth” value in data set [1] is reported as “did not affect the cell growth”. The inhibition at 60 µM with HIV-1 BaL [2] (Human immunodeficiency virus 1, BAL, TZM-bl, read-out: inhibition of HIV infection by positive control (HIV-1 BaL, TZM-bl)) is at least 90%.
Turning to `O=c1c(O)c(-c2cc(O)c(O)c(O)c2)oc2cc(O)cc(O)c12` [Myricetin], the LD50 with HeLa cells (HeLa cells, 24 hours treatment) is 804.94 µM; in the data set on PBMC cells (PBMC cells) it was 1159.26 µM; in the data set on H9 cells (H9 cells), 1059.09 µM; in the data set with TZM-bl cells [9] (setting [13]) it was 1214.92 µM and 1214.72 µM. Besides, the IC50 with HIV-1 MN [3] (Human immunodeficiency virus 1, PBMC) was 4.49 µM; with HIV-1 MN [4] (setting [11]), 22.9 µM; in the data set with HIV-1 89.6 [8] (setting [11]) it was 1.76 µM; with HIV-1 BaL [2] (setting [12]), 20.4 µM; in the data set with HIV-1 BaL [10] (read-out: IC50, HIV-1 BaL infection in dual-chamber system), 19.5 µM. Moreover, the inhibition at 100 µM with HIV-1 MN [3] (Human immunodeficiency virus 1, PBMC, read-out: inhibition of HIV-1 MN infection in PBMC cells) was 86%; in the data set with HIV-1 89.6 [7] (Human immunodeficiency virus 1, PBMC, read-out: inhibition of HIV-1 89.6 infection in PBMC cells) it was 85%; in the data set on HIV-1 BaL [2] (Human immunodeficiency virus 1, BAL, TZM-bl, read-out: inhibition of HIV-1 BaL infection in TZM-bl cells), above 87%; in the data set with HIV-1 BaL [10] (read-out: inhibition of HIV-1 BaL infection in dual-chamber system) it was above 88%. For the same compound, the “anti-HIV activity greater compared to Pinocembrin, HIV-1 MN, H9” value in the data set on HIV-1 MN [4] (H9 cells) is on record as around 2.9 x. Moreover, the “anti-HIV activity greater than that of Quercetin, HIV-1 MN, H9” value in the data set with HIV-1 MN [4] (H9 cells) is given as “approximately 1.7 x”. The viability at 24 h, 100 µM in [5] (PBMC and H9 cells, at 100 µM concentration, read-out: cell viability compared with the negative control (only cells)) was at least 85%. Besides, the “cell viability in dual-chamber model versus negative control (only cells)” value in the data set on TZM-bl cells [6] is “no statistically significant difference; also recorded: did not show a statistically significant difference on cell viability”. Moreover, in the data set with HeLa cell layer, the “TEER of HeLa cell layer before and after flavonoid treatment” value was 208 Ohm/cm^2. The “x higher than Pinocembrin, HIV-1 89.6, PBMC” value with HIV-1 89.6 [7] (PBMC cells) turned out to be 16.4 x. Besides, in the data set with HIV-1 89.6 [7] (PBMC cells), the “x higher than Quercetin, HIV-1 89.6, PBMC” value is 12.3 x. In the data set on HIV-1 89.6 [7], the “anti-HIV activity, PBMC cells, HIV-1 89.6” value is “more than 80%”. The “anti-HIV activity greater than for Pinocembrin, HIV-1 89.6, H9” value with HIV-1 89.6 [8] (H9 cells) is 23.9 x. Further, the “anti-HIV activity greater than for Quercetin, HIV-1 89.6, H9” value in the data set with HIV-1 89.6 [8] (H9 cells) amounted to 16.9 x.
Turning to `O=C1C[C@@H](c2ccccc2)Oc2cc(O)cc(O)c21` [Pinocembrin], the LD50 is on record as 99.52 µM in the data set on HeLa cells (human, 24 h); 788.23 µM in the data set on PBMC cells (human, 24 h); 805.76 µM in the data set on H9 cells (human, 24 h); 67.94 µM in the data set on TZM-bl cells [9] (human, 24 h). Moreover, the IC50 worked out at 57.7 µM in the data set on HIV-1 MN [3] (setting [14]); 67.2 µM in the data set with HIV-1 MN [4] (setting [15]); 53.2 µM with HIV-1 89.6 [7] (PBMC cells); 42.2 µM in the data set with HIV-1 89.6 [8] (setting [16]); 347 µM with HIV-1 BaL [2] (Human immunodeficiency virus 1, TZM-bl cells, HIV-1 BaL, MOI = 1, read-out: IC50). Further, the “anti-HIV activity, PBMC cells, HIV-1 MN” value with HIV-1 MN [3] (p24 ELISA) was 67%. The “inhibition of infection / anti-HIV activity, H9 cells, HIV-1 MN” value in the data set with HIV-1 MN [4] (p24 ELISA) is reported as at least 60%. The viability at 24 h in data set [5] (PBMC and H9 cells) was at least 85%. Also, the “anti-HIV activity, PBMC cells, HIV-1 89.6” value in the data set on HIV-1 89.6 [7] is recorded as 51%. For the same compound, the “inhibition of infection / anti-HIV activity, H9 cells, HIV-1 89.6” value in the data set with HIV-1 89.6 [8] is listed as at least 60%. The “anti-HIV activity compared with the vehicle control (HIV-1 BaL, TZM-bl)” value with HIV-1 BaL [2] amounted to 28%.
On to `O=c1c(O)c(-c2ccc(O)c(O)c2)oc2cc(O)cc(O)c12` [Quercetin], for which the LD50 in the data set on HeLa cells (HeLa cells, 24 hours treatment) is 78.20 µM; in the data set on PBMC cells (PBMC cells), 813.57 µM; in the data set with H9 cells (H9 cells), 905.76 µM; in the data set with TZM-bl cells [9] (setting [13]), 119.23 µM. The concentration for half-maximal inhibition (IC50) came out at 31.7 µM in the data set on HIV-1 MN [3] (setting [14]); 38.8 µM with HIV-1 MN [4] (setting [15]); 39.3 µM in the data set with HIV-1 89.6 [7] (PBMC cells); 29.8 µM in the data set on HIV-1 89.6 [8] (setting [16]); 89 µM with HIV-1 BaL [2] (setting [12]). Also, the “anti-HIV activity, PBMC cells, HIV-1 MN” value with HIV-1 MN [3] (p24 ELISA) amounted to 45%. Also, in the data set on HIV-1 MN [4] (p24 ELISA), the “inhibition of infection / anti-HIV activity, H9 cells, HIV-1 MN” value was at least 64%. In addition, in data set [5], the viability at 24 h is at least 85%. In addition, the “anti-HIV activity, PBMC cells, HIV-1 89.6” value in the data set with HIV-1 89.6 [7] is listed as 59%. In addition, the “inhibition of infection / anti-HIV activity, H9 cells, HIV-1 89.6” value in the data set on HIV-1 89.6 [8] is on record as at least 64%. The “anti-HIV activity compared with the vehicle control (HIV-1 BaL, TZM-bl)” value in the data set on HIV-1 BaL [2] is given as 39%.
